ChEMBL document CHEMBL5579878, “Allosteric Activation of Protein Phosphatase 5 with Small Molecules” (J Med Chem, 2024)
Substitutions are numbered along the chain they refer to. pEC50, pKd: −log10 of the molar value. Activity calls are given as the source filed them. No cut-off for these calls is given here.

Columns and labels:
[1] = molecular target: T1, Serine/threonine-protein phosphatase 5 (Homo sapiens, UniProt P53041); assay: Activation of His-tagged human PP5 extracted from Escherichia coli BL21 using pNPP as substrate assessed as increase in phosphatase activity incubated for 30 mins by spectrophotometric analysis
T1 sequence (P53041 whole entry): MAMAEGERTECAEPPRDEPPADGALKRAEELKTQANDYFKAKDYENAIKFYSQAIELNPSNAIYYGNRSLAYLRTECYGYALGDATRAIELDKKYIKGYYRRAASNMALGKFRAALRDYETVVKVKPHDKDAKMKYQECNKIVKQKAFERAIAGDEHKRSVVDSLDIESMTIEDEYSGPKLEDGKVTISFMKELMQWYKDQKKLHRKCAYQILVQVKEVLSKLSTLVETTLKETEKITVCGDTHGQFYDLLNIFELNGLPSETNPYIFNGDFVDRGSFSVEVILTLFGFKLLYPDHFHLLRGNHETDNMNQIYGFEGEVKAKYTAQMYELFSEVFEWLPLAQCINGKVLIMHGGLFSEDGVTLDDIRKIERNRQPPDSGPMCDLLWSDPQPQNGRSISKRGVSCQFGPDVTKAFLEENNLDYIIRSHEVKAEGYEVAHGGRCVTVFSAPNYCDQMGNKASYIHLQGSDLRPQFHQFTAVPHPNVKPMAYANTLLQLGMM

[2] = molecular target: T1, Serine/threonine-protein phosphatase 5; assay: Binding affinity to full length His-tagged human PP5 extracted from Escherichia coli BL21 assessed as dissociation constant by ITC analysis
[3] = molecular target: T1, Serine/threonine-protein phosphatase 5; assay: Binding affinity to His-tagged human PP5 phosphatase domain extracted from Escherichia coli BL21 assessed as dissociation constant by ITC analysis
[4] = tested on: T2, Serine/threonine-protein phosphatase 5 (Homo sapiens), P53041 [V429A]; assay: Binding affinity to PP5 V429A mutant (unknown origin) by ITC analysis
T2 sequence (whole entry): T1 sequence (P53041 whole entry) with V429A

[5] = molecular target: Serine/threonine-protein phosphatase PP1-alpha catalytic subunit (Homo sapiens) (UniProt P62136); assay: Inhibition of PP1A (unknown origin) using DiFMUP as substrate at 0.01 to 1000 uM; details: dose 0.01-1000 µM
Serine/threonine-protein phosphatase PP1-alpha catalytic subunit (Homo sapiens), sequence (P62136 whole entry): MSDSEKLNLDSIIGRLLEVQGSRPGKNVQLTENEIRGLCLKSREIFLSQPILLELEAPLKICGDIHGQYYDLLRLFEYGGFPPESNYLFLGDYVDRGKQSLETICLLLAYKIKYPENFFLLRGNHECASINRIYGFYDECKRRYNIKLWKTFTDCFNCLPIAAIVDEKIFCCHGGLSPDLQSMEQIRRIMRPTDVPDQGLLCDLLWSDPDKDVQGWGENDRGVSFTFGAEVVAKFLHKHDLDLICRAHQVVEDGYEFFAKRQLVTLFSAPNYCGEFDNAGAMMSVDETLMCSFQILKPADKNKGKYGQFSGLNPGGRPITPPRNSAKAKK

[6] = molecular target: Serine/threonine-protein phosphatase PP1-beta catalytic subunit (Homo sapiens) (UniProt P62140); assay: Inhibition of PP1B (unknown origin) using DiFMUP as substrate at 0.01 to 1000 uM; details: dose 0.01-1000 µM
Serine/threonine-protein phosphatase PP1-beta catalytic subunit (Homo sapiens), sequence (P62140 whole entry): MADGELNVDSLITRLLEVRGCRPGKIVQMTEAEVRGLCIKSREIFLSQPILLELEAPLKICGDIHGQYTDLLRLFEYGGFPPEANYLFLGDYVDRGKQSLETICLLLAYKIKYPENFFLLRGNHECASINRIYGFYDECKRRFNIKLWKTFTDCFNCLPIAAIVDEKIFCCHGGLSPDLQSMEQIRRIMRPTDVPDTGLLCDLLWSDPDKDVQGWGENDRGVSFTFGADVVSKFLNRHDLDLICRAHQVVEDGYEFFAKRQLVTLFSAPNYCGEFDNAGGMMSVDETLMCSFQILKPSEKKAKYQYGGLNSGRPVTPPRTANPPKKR

[7] = molecular target: T3, Serine/threonine-protein phosphatase 5 (Homo sapiens) (UniProt P53041); assay: Binding affinity to human PP5 extracted from Escherichia coli BL21 using CDC37 as substrate assessed as increase in dephosphorylation of p-CDC37 at S13 residue at 25 uM by Western blot analysis; details: filed as activator, time 0.5-2 hrs, TDE = time-dependent effect
T3 sequence (whole entry): T1 sequence (P53041 whole entry)

[8] = tested on: T4, Serine/threonine-protein phosphatase 5 (Homo sapiens), P53041 [K430A]; assay: Activation of PP5 K430A mutant (unknown origin) using pNPP as substrate assessed as increase in phosphatase activity at 10 to 200 uM incubated for 30 mins by spectrophotometric analysis; details: dose 10-200 µM
T4 sequence (whole entry): T1 sequence (P53041 whole entry) with K430A

[9] = molecular target: T3, Serine/threonine-protein phosphatase 5 (Homo sapiens); assay: Induction of thermal stabilization of PP5 in human HCT-116 cells assessed as increase in melting temperature at 100 uM incubated for 12 hrs at 37 to 58 degreeC by CETSA; assay type: cell-based
HCT-116 [10] = assay: Effect on HSP27 expression level in human HCT-116 cells at 1 to 100 uM incubated for 24 hrs by Western blot analysis; assay type: functional, cell-based; details: dose 1-100 µM
HCT-116 [11] = assay: Effect on HSP40 expression level in human HCT-116 cells at 1 to 100 uM incubated for 24 hrs by Western blot analysis; assay type: functional, cell-based; details: dose 1-100 µM
HCT-116 [12] = assay: Downregulation of AT13387-induced HSP27 mRNA expression in human HCT-116 cells at 50 uM incubated for 24 hrs by qRT-PCR analysis; assay type: functional, cell-based
[13] = Toxicity in BALB/c nude mouse xenografted with human HCT-116 cells assessed as body weight loss at 30 to 60 mg/kg, ip administered every other day for 14 days in presence of AT13387; assay type: organism-based; details: in vivo, 336 h, dose 30-60 mg/kg, time 14 day
HCT-116 [14] = assay: Antitumor activity against human HCT-116 cells xenografted in BALB/c nude mouse at 60 mg/kg, ip administered every other day for 14 days; assay type: functional, organism-based; details: time 14.0 day

pEC50 [1]: 4.28
pKd [2]: 5.94
pKd [3]: 6.09
Activity [4]: inactive
inhibition [5]: inactive
inhibition [6]: inactive
Activity [7]: Tde
Activity [8]: inactive
ΔTm [9]: 1.48 °C
SMILES: N=c1oc2cc(F)cc(F)c2cc1C(N)=S
Activity (HCT-116 [10]): inactive
Activity (HCT-116 [11]): inactive
Activity (HCT-116 [12]): Active
Activity [13]: Non-Toxic
Activity (HCT-116 [14]): inactive
